# Measurements as given in patent US8778966B2, “Quinolinone derivatives as PARP and tank inhibitors” (Janssen Pharmaceutica, NV, priority 2007, dated 2014).
# Tested on: HCT116 cells
# Experiment: Antiproliferative activity, Alamar Blue assay, HCT116 cells
# Type: cell-based, human
# Conditions: Homo sapiens, HCT-116, HCT116 cells, Alamar Blue; read-out: HCT116 antiproliferative activity pIC50 (converted)
# How it was run: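 HCT116 cells seeded, adhered 24 h, then exposed to compound for 4 days; Alamar Blue (resazurin) added for 4 h at 37 °C, fluorescence read at 540/590 nm. Viability as % of untreated control, triplicate wells; IC50 by probit analysis, reported as pIC50.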
row,IC50 [nM],Compound
1,398,Cc1cc2ccc(C(C)(C#N)C3CCc4ccccc43)cc2[nH]c1=O (stereo not drawn) [Compound 392]
2,1580,Cc1cc2ccc(C(C)(C#N)C3CCCc4ccccc43)cc2[nH]c1=O (stereo not drawn) [Compound 404]
3,398,Cc1cc2ccc(C(C)(C#N)Cc3cccc(/C=C/CCO)c3)cc2[nH]c1=O (stereo not drawn) [Compound 409]
